From EPA's ToxValDB 9.5 (doi:10.2903/j.efsa.2014.3805)
≈ marks a conversion by molar mass, not a printed value.

Experiments:
Pimephales promelas = conditions: chronic/long-term; duration: 28 days; body weight
Oncorhynchus mykiss = conditions: acute; duration: 96 hours; mortality
Apis mellifera = conditions: acute; oral; unspecified; mortality
Cyprinus carpio = conditions: acute; duration: 96 hours; mortality
Daphnia magna = conditions: chronic/long-term; duration: 21 days; body weight
Bibionidae = conditions: chronic/long-term; duration: 28 days; body weight
Aphidius rhopalosiphi = assay: LR50; higher = less toxic; conditions: acute; duration: 48 hours; mortality
Typhlodromus pyri = assay: LR50; higher = less toxic; conditions: acute; duration: 7 days; mortality

In the case of `COc1ccccc1N1CCS/C1=C(/C#N)Sc1cc(C(F)(F)F)ccc1F` [Flutianil], the NOEC (Pimephales promelas) is reported as 0.000781 mg/L, the LC50 (Tagia sp.; acute, duration: 14 days, mortality) is reported as greater than 500 mg/kg and the NOEC (Tagia sp.; chronic/long-term, duration: 8 weeks, reproduction) is reported as 6.25 mg/kg. It also gave an LC50 (Oncorhynchus mykiss) of 0.051 µg/mL (≈ 0.12 µM), an LD50 (Rattus norvegicus; acute, oral, mortality) greater than 2000 mg/kg and an NOAEL (Rattus norvegicus; chronic, duration: 2 years, histopathology: nonneoplastic) of 81.9 mg/kg-day. It also gave an NOAEL (Rattus norvegicus; developmental, development) of 100 mg/kg-day, an NOAEL (Rattus norvegicus; reproduction developmental, organ weight) of 123 mg/kg-day and an LD50 (Apis mellifera) greater than 100 µg/piece. For the same compound, the LC50 (Cyprinus carpio) was greater than 0.87 µg/mL, the LD50 (Colinus virginianus; acute, oral, mortality) was greater than 2250 mg/kg and the NOAEL (Colinus virginianus; reproduction developmental) was 186 mg/kg-day. For the same compound, the NOEC (Daphnia magna) was 0.00697 mg/L, the NOEC (Bibionidae) was 396 mg/kg and the LR50 (Aphidius rhopalosiphi) was greater than 480 g/ha. The LR50 (Typhlodromus pyri) was greater than 480 g/ha.
